Reference: publication PMC8375664 (Frontiers in Endocrinology, 2021)
Bridge positions count the residues as written; N and C are the ends. Square brackets hold non-standard residues; d marks the D form. Peptide text beside a SMILES is read from it. d2Nal = N[C@H](Cc1ccc2ccccc2c1)C(=O)O

Key:
rat MC4R [1] = target: T1, rat MC4R (Rattus norvegicus, UniProt P70596); experiment: Inhibition of agonist-induced cAMP production by rat MC4R in transfected COS-7 cells (antagonist mode)
human MC4R = human MC4R (Homo sapiens, UniProt P32245); experiment: cAMP production by human MC4R in transfected COS-7 cells (agonist mode)
rat MC4R [2] = target: T1, rat MC4R; experiment: cAMP production by rat MC4R in transfected COS-7 cells (agonist mode)
[3] = test system: human gut specimens (duodenum, ileum and colon); conditions: incubation of human gut specimens from duodenum; cited from earlier work
Description: Glucagon-like peptide-1 (GLP-1) is a gastrointestinal hormone that is secreted from intestinal L-cells after meal intake. It acts to inhibit appetite and potentiate glucose-stimulated insulin secretion ([1]–[3]). These actions led to the development of GLP-1 based drugs, which have been used for more than a decade for type-2-diabetes treatment and recently also to induce weight loss. In parallel with the development and refinement of GLP-1 based drugs, research has been directed at uncovering the molecular mechanisms responsible for GLP-1 secretion, aiming to create a therapeutically relevant ...

[4] = test system: isolated perfused distal mouse small intestine; experiment: GLP-1 secretion from isolated perfused mouse small intestine, distal part; conditions: vascular administration at end of experiment
Protocol: (§1) Male Wistar rats (~250 g) and male C57BL/6JRj mice (~28 g, 11–12 weeks) were purchased from the Janvier Labs (Le Genest-Saint-Isle, France). Mice and rats were housed with ad libitum access to standard chow and water following a 12:12 h light:dark cycle and were acclimatized for a least a week before experiments. On the day of experiment, rats and mice were transferred to our perfusion facility and anesthetized with a subcutaneous injection of hypnorm/midazolam (rats) (0.3 ml/100 g body weight, per ml: 0.08 mg fentanyl, 2.5 mg fluanisone, 0.45 mg Methyl Parahydroxybenzoate, 0.05 mg Propyl Parahydroxybenzoate, Midazolam: 1.25 mg, Matrix Pharmaceuticals, Hellerup, Denmark) or with an intraperitoneal injection of Ketamine/Xylazine (0.1 ml/20 g) (90 mg/kg Ketamine, Ketaminol Vet, MSD Animal Health; 10 mg/kg Xylazine, Rompun Vet., Bayer Animal Health) respectively, to block the activity of pain sensing nerves and to induce surgical anesthesia. […]
(§2) Total GLP-1 concentrations in venous effluents were quantified using an in-house RIA (code: 89390) ([23]). […] Samples were assayed non-extracted and concentrations were calculated by a four-parameter interpolation to a standard curve containing synthetic GLP-1 7–36 amide (H-6795-GMP, Bachem, Bubendorf, Switzerland) ranging from 5 to 320 pmol/L. I^125-labeled GLP-1 7–36 amide (a gift from Novo Nordisk A/S, Bagssværd, Denmark) was used as tracer. […]

[5] = test system: isolated perfused mouse small intestine, upper half; experiment: GLP-1 secretion from isolated perfused mouse small intestine, upper half; conditions: vascular administration at end of experiments
Protocol: as §1, §2

[6] = test system: isolated perfused rat distal small intestine; experiment: GLP-1 secretion from isolated perfused rat distal small intestine
Protocol: as §1, with “anesthesia. For distal perfusions, the rat or mouse was placed on a heated operating table (37°C), the abdominal cavity was opened by a mid-line incision and the large intestine was excised after tying off the supplying vasculature. Furthermore, the upper half of the small intestine was removed. In the rat, the lower half of the small intestine (~50 cm) was retained and perfused in situ after insertion of a catheter into the upper mesenteric artery, while perfusion effluent was collected through a catheter inserted in the portal vein.” for “anesthesia.”
as §2

T1 sequence (P70596 whole entry): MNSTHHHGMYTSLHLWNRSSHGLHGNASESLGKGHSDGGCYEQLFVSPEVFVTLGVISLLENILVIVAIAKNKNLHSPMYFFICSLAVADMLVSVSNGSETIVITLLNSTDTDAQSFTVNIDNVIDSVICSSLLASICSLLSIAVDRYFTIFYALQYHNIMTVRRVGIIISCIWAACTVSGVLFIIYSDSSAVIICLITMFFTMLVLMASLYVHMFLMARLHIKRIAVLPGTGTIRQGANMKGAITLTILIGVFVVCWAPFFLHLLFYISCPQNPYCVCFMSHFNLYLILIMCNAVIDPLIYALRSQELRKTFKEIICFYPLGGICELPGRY
Sequence of human MC4R (P32245 whole entry): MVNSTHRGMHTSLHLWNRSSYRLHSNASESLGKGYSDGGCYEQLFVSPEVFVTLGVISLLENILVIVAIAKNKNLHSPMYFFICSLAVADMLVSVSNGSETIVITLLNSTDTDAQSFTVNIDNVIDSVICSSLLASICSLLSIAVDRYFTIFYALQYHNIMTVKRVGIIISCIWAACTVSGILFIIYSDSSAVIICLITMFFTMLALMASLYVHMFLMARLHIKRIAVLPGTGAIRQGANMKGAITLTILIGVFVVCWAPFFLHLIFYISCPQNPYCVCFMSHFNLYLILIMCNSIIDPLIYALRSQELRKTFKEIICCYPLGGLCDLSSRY

CC(=O)N[C@H]1CSSC[C@@H](C(=O)N2CCC[C@H]2C(=O)N2CCC[C@H]2C(=O)N[C@@H](CCCCN)C(=O)N[C@@H](CC(=O)O)C(N)=O)NC(=O)CNC(=O)[C@H](Cc2c[nH]c3ccccc23)NC(=O)[C@H](CCCNC(=N)N)NC(=O)[C@@H](Cc2ccc3ccccc3c2)NC(=O)[C@H](Cc2c[nH]cn2)NC(=O)[C@H](CCC(=O)O)NC1=O [HS014] (Ac-CEH[d2Nal]RWGCPPKD-NH2; disulfide 1-8)
IC50 (rat MC4R [1]): 0.00631 µM | EC50 (human MC4R): 0.035 µM | EC50 (rat MC4R [2]): 0.0158 µM | Emax (rat MC4R [2]; COS-7, read-out: Emax on rat MC4R relative to alpha-MSH Emax): ~40%

CC(=O)N[C@@H](C)c1cc(Cl)ccc1C1CCN(C(=O)[C@@H]2CN(C(C)(C)C)C[C@H]2c2ccc(F)cc2F)CC1 [MK-0493]
effect on GLP-1 and PYY secretion [3]: increased

bombesin
effect on GLP-1 output (positive control) [4]: robustly increased GLP-1 output | effect on GLP-1 output (positive control) [5]: robustly increased GLP-1 output

OC[C@H]1OC(O)[C@H](O)[C@@H](O)[C@@H]1O (stereo partly shown) [glucose]
total GLP-1 output during first luminal glucose stimulation, control experiment ([6]; luminal glucose 20% w/v, 15 min, baseline 1.8 ± 0.2 pmol, P <0.001, n = 6): 4.8 ± 0.34 pmol | total GLP-1 output during first luminal glucose stimulation, glucose + HS014 experiment (before HS014) ([6]; luminal glucose 20% w/v, 15 min, baseline 2.0 ± 0.5 pmol, P = 0.01, n = 6): 5.6 ± 1.0 pmol | fold increase of GLP-1 secretion by luminal glucose ([6]; luminal glucose infusion): 2–3 fold
